# According to US12616697B2, “Methods of treatment with myosin modulator” (MyoKardia, Inc., priority 2020, dated 2026):
# Tested on: subjects with symptomatic non-obstructive HCM (nHCM)
# Experiment: […]-HCM Phase 2 randomized, double-blind, placebo-controlled, concentration-guided study
# Format: in vivo, human
# Design: Overall KCCQ Summary Score, mean change / Clinical KCCQ Summary Score, mean change / Overall KCCQ Summary Score / Clinical KCCQ Summary Score: scale not given here
# Details: for LVEF, mean change: Week 16
# Description: This is a Phase 2 trial designed to assess the safety and tolerability of a range of exposures over 16 weeks of treatment in subjects with symptomatic, non-obstructive HCM. All study subjects were required to be diagnosed with non-obstructive HCM, with left ventricular wall thickness either ≥15 mm or ≥13 mm with a family history of HCM, LVEF≥55%, NYHA classifications of Class II or III, and NT-proBNP levels of greater than 300 pg/mL at rest. Baseline characteristics, such as age, weight, gender, pathogenic mutation status, background beta blocker use, NYHA classification and exercise capacity were approximately evenly distributed between active and placebo arms.
# This double-blind study enrolled 59 individuals with nHCM (Left ventricular outflow tract gradient<30 mmHg; resting or provoked), NYHA Class II or III, and LVEF≥55%. Subjects were randomized 1:1:1 to one of two target plasma drug concentrations (Group 1: ˜200 ng/mL and Group 2: ˜500 ng/mL) or placebo for 16 weeks, followed by an 8-week washout. […] Predefined criteria, including LVEF (LVEF≤45%), guided study drug discontinuation if indicated. Cardiopulmonary exercise testing was performed at baseline and Week 16 to assess the impact on exercise capacity.
# Dose adjustments will be based on PK parameters. Assessments include safety, standardized cardiopulmonary exercise testing (CPET) with measurement of peak oxygen consumption, echocardiography to evaluate left ventricular ejection fraction (LVEF) and parameters of diastolic function, symptoms, quality of life, daily step counts, and NT-proBNP at rest and after exercise. In addition, subjects may consent to hypertrophic cardiomyopathy genotyping and pharmacogenetic sampling.
# Cardiac Troponin I levels were evaluated on plasma and serum samples of subjects at baseline and at various time points in the trial (Abbott Architect Stat Troponin-I assay (Ref. 2K41)). Cardiac Troponin T levels were evaluated on plasma and serum samples of subjects at baseline and at various time points in the trial (Roche Elecsys Troponin T hs assay) (Ref. 08469873190) performed on a cobas e 801 analyzer). NT-proBNP levels were evaluated on plasma samples using the Roche Elecsys proBNPII assay (Ref. 07027664190) on a cobas e 801 analyzer.
# Subjects were randomized via an interactive response system to 3 groups in a 1:1:1 ratio: 2 active treatment groups and 1 matching placebo.
# 5 mg QD was used as the starting dose for the study. All subjects in the active treatment groups started on 5 mg QD. […] PK modeling was used to guide blinded dose adjustment at the Week 6 visit, based on the plasma concentrations collected at Week 4. Subjects in the placebo group underwent the same assessments in order to preserve the blind. […] Subjects were instructed to take the drug under fasting conditions, at approximately the same time each day, and with 8 ounces of water.
# To achieve the target concentration, if a subject's Week 4 concentration was >450 ng/mL, the subject's dose was decreased to 2.5 mg QD; if Week 4 concentration was 110-450 ng/mL, the dose was maintained at 5 mg QD; and if Week 4 concentration was <110 ng/mL, the dose was increased to 10 mg QD.
# Subjects were monitored for adverse events (AE), including high blood plasma concentration, systolic dysfunction, QT prolongation, and LVEF decrease. If any of the following thresholds were hit PK 1000 or more, QTcF 500, or LVEF 45%, the subjects were discontinued on drug. Specifically, high blood plasma concentration was defined as blood plasma concentration greater than or equal to 1000 ng/mL; QT prolongation was defined as QTcF greater than or equal to 500 ms; and LVEF shortening was defined as LVEF less than or equal to 45% (including serious adverse event (SAE) for LVEF less than or equal to 30%).
# Efficacy and pharmacodynamics assessments were also made. Resting transthoracic echocardiography measurements were taken at Weeks 4, 8, 12 and 16. […]
# [1] = Elevated Troponin subgroup, Mean Difference vs placebo
# [2] = Elevated Troponin subgroup, mean change from baseline
# [3] = Subgroup with Elevated E/e′ at Baseline, Difference mavacamten vs placebo
# [4] = Subgroup with Elevated E/e′ at Baseline, pooled, mean change from baseline
smiles,measurement,setting,value
"CC(C)n1c(=O)cc(N[C@@H](C)c2ccccc2)[nH]c1=O [mavacamten, (S)-3-Isopropyl-6-((1-phenylethyl)amino)pyrimidine-2, 4(1H,3H)-dione]","Composite Functional Endpoint: Met endpoint, either type, %","Combined Subgroup (elevated cTnI or E/e′ average >14), Pooled",33%
same,"Composite Functional Endpoint: Met endpoint, either type, %","Combined Subgroup, Group 1 ~200 ng/mL",(33.3) %
same,"Composite Functional Endpoint: Met endpoint, either type, %","Combined Subgroup, Group 2 ~500 ng/mL",(33.3) %
same,Clinical KCCQ Summary Score,[1],8.8
same,NYHA Class,[1],−0.3
same,Peak VO2,[1],2.70 mL/min/kg
same,Serum Troponin I (cTnI),[1],-0.083 ng/mL
same,Clinical KCCQ Summary Score,[2],6.9
same,NYHA Class,[2],−0.5
same,Overall KCCQ Summary Score,[2],6.4
same,Serum Troponin I (cTnI),[2],-0.12 ng/mL
same,"Clinical KCCQ Summary Score, mean change","ITT, Group 1 ~200 ng/mL",0.11
same,"Lateral e′, mean change","ITT, Group 1 ~200 ng/mL",0.34 cm/s
same,"NYHA Class, mean change","ITT, Group 1 ~200 ng/mL",−0.6
same,"Overall KCCQ Summary Score, mean change","ITT, Group 1 ~200 ng/mL",0.35
same,"Peak VO2, mean change","ITT, Group 1 ~200 ng/mL",0.36 mL/min/kg
same,"Septal e′, mean change","ITT, Group 1 ~200 ng/mL",0.64 cm/s
same,"LVEF, mean change","ITT, Group 1 ~200 ng/mL",−2.30%
same,"LVEDV, mean change","ITT, Group 2 ~500 ng/mL",6.50 mL
same,"NYHA Class, mean change","ITT, Group 2 ~500 ng/mL",−0.3
same,"Peak VO2, mean change","ITT, Group 2 ~500 ng/mL",0.12 mL/min/kg
same,"Septal e′, mean change","ITT, Group 2 ~500 ng/mL",1.60 cm/s
same,"Lateral e′, mean change","ITT, Pooled",0.94 cm/s
same,"NYHA Class, mean change","ITT, Pooled",−0.4
same,"Peak VO2, mean change","ITT, Pooled",0.22 mL/min/kg
same,"LVEF, mean change","ITT, Pooled",−4.1%
same,Clinical KCCQ Summary Score,[3],4.1
same,LVEDVi,[3],3.9 mL/m^2
same,NYHA Class,[3],0.0
same,Overall KCCQ Summary Score,[3],0.4
same,Peak VO2,[3],1.9 mL/min/kg
same,cTnI,[3],-0.07 ng/mL
same,Clinical KCCQ Summary Score,[4],4.6
same,LVEDVi,[4],2.8 mL/m^2
same,NYHA Class,[4],−0.4
same,Overall KCCQ Summary Score,[4],4.7
same,Peak VO2,[4],1.2 mL/min/kg
same,cTnI,[4],-0.09 ng/mL
same,"Serious adverse events (SAEs), subjects","subjects receiving mavacamten, placebo 21%",10%
same,"participants with a decrease in LVEF to ≤45%, %","weeks 11-12, active treatment",12.5%
